# Measured values from PMC3310203 (Journal of Medicinal Chemistry, 2012).
# “Also recorded” adds a separate entry of the source. Read-outs that look alike come from different tables or passages of the source.
# Key:
# [1] = ATZ for comparison, cited from earlier work
# HIV = test: In vitro anti-HIV activity in MT4 cells; type: cell-based; details: for times higher potency than 13a in the cell-based antiviral activity assay: fold versus 13a
# HIV-1 protease = HIV-1 protease (Human immunodeficiency virus type 1 group M subtype B, UniProt P04585); test: HIV protease inhibition, fluorometric assay; type: biochemical; details: for Ki: fluorometric assay, pH 5.0, 30 °C, 5 µM substrate
# Metabolic stability = type: in vitro ADME, human
# Caco-2 cell = Caco-2 cell penetration assay; type: in vitro ADME
# [2] = p-bromide inhibitors 13a and 19a compared
SMILES,activity in the cell-based antiviral assay (in words) (HIV),activity in the enzyme assay (in words) (HIV-1 protease),permeability in the Caco-2 study (in words) (Caco-2 cell),further results
"COC(=O)N[C@H](C(=O)N[C@@H](Cc1ccccc1)[C@@H](O)CN(Cc1ccc(-c2ccccn2)cc1)NC(=O)[C@@H](NC(=O)OC)C(C)(C)C)C(C)(C)C [ATZ, Atazanavir]",–,–,–,Clint ([1]; ref 23): 90 μL min^–1 mg^–1; Clint ([1]; ref 64): 140 μL min^–1 mg^–1
COC(=O)N[C@H](C(=O)NN(CC[C@@]1(Cc2ccccc2)C(=O)N([C@H]2c3ccccc3C[C@H]2O[Si](C)(C)C(C)(C)C)C[C@H]1O[Si](C)(C)C(C)(C)C)Cc1ccc(Br)cc1)C(C)(C)C [Compound 12a],did not show any activity,did not show any activity; also recorded: did not show any inhibitory potency,–,–
COC(=O)N[C@H](C(=O)NN(CC[C@@]1(Cc2ccccc2)C(=O)N([C@H]2c3ccccc3C[C@H]2O[Si](C)(C)C(C)(C)C)C[C@@H]1O[Si](C)(C)C(C)(C)C)Cc1ccc(Br)cc1)C(C)(C)C [Compound 12d],did not show any activity,did not show any activity; also recorded: did not show any inhibitory potency,–,–
COC(=O)N[C@H](C(=O)NN(CC[C@@]1(Cc2ccccc2)C(=O)N([C@H]2c3ccccc3C[C@H]2O)C[C@H]1O)Cc1ccc(Br)cc1)C(C)(C)C [Compound 13a],–,–,–,"metabolic clearance (in words) (Metabolic stability): High metabolic clearance; EC50 (HIV; Human immunodeficiency virus 1, MT4, antiviral activity, MT4 cells): < 1000 nM; Ki (HIV-1 protease): < 10 nM"
COC(=O)N[C@H](C(=O)NN(CC[C@]1(Cc2ccccc2)C(=O)N([C@H]2c3ccccc3C[C@H]2O)C[C@H]1O)Cc1ccc(Br)cc1)C(C)(C)C [Compound 13b],did not show any activity; also recorded: almost no inhibiting effect,did not show any activity; also recorded: almost no inhibiting effect,–,–
COC(=O)N[C@H](C(=O)NN(CC[C@]1(Cc2ccccc2)C(=O)N([C@H]2c3ccccc3C[C@H]2O)C[C@@H]1O)Cc1ccc(Br)cc1)C(C)(C)C [Compound 13c],did not show any activity; also recorded: almost no inhibiting effect,did not show any activity; also recorded: almost no inhibiting effect,–,–
COC(=O)N[C@H](C(=O)NN(CC[C@@]1(Cc2ccccc2)C(=O)N([C@H]2c3ccccc3C[C@H]2O)C[C@@H]1O)Cc1ccc(Br)cc1)C(C)(C)C [Compound 13d],–,–,good results,metabolic clearance (in words) (Metabolic stability): High metabolic clearance; Ki (HIV-1 protease): < 10 nM
COC(=O)N[C@H](C(=O)NN(CC[C@@]1(Cc2ccccc2)C(=O)N([C@H]2c3ccccc3C[C@H]2O)C[C@H]1O)Cc1ccc(-c2cccnc2)cc1)C(C)(C)C [Compound 13g],–,–,moderate permeability,times higher potency than 13a in the cell-based antiviral activity assay (HIV): 10
COC(=O)N[C@H](C(=O)NN(CC[C@@]1(Cc2ccccc2)C(=O)N([C@H]2c3ccccc3C[C@H]2O)C[C@@H]1O)Cc1ccc(-c2cccnc2)cc1)C(C)(C)C [Compound 13h],–,–,moderate permeability,–
COC(=O)N[C@H](C(=O)NN(CC[C@@]1(Cc2ccccc2)C(=O)N([C@H]2c3ccccc3C[C@H]2O)C[C@H]1O)Cc1ccc(-c2ccncc2)cc1)C(C)(C)C [Compound 13i],–,–,–,times higher potency than 13a in the cell-based antiviral activity assay (HIV): 10
COC(=O)N[C@H](C(=O)NN(CCC[C@@]1(Cc2ccccc2)C(=O)N([C@H]2c3ccccc3C[C@H]2O)C[C@H]1O)Cc1ccc(Br)cc1)C(C)(C)C [Compound 19a],–,–,high permeability,fold loss of potency versus 13a (EC50) (HIV; [2]): 5; fold loss of potency versus 13a (Ki) (HIV-1 protease; [2]): 5
